The values below come from article PMC11897554, “Pharmacokinetic effect of disease severity and use of extracorporeal membrane oxygenation in critically ill Asian patients receiving vancomycin” (Frontiers in Pharmacology, 2025).

Series [1] is described as follows: Population pharmacokinetic analysis (nonlinear mixed-effects, one-compartment) of vancomycin therapeutic drug monitoring data in critically ill patients.
From the text: This retrospective study used medical records of critically ill patients hospitalized in Kaohsiung Veterans General Hospital, Taiwan, from 1 January 2014, to 31 December 2016. The study was approved by the Kaohsiung Veteran General Hospital Institutional Review Board (certificate number VGHKS18-CT9-12). A waiver of informed consent was granted as the data were collected retrospectively from medical records. The identity of the study subjects was masked through the use of a study identifier. Data were de-identified. […] Patients were excluded if vancomycin concentrations in blood could not be detected or if there were incomplete data on the vancomycin regimen. As per the study protocol the blood samples were collected >1 h after the end of dose administration (peak concentration) and within 30 min before the next dose (trough concentration). Trough and peak concentrations obtained after administering at least four equal repeated doses were referred to as the steady-state concentrations.
Data abstracted included height, weight, age, principal diagnosis at admission, whether an open-heart surgery had been performed, serum creatinine concentrations, whether extracorporeal membrane oxygenation (ECMO), and vancomycin dosage, frequency, route, speed, and administration time indications for the use of vancomycin. The estimated glomerular filtration rate (eGFR) was calculated using the bedside Schwartz equation from serum creatinine values ([Schwartz et al., 2009]). There were nine distinct diagnostic categories at admission. To improve simplicity and interpretability, diagnoses were grouped into two major categories based on clinical differences, depending on the severity of the bacterial infection for which vancomycin was used. The first category (severe infections) corresponded to people diagnosed with pneumonia/bacteremia/osteomyelitis/meningitis/deep tissue infection, and the second category (mild infections) included people diagnosed with cellulitis/surgical prevention/neutropenic fever/others.
Vancomycin plasma concentrations were transformed into their natural logarithms. The corresponding concentration versus time plot was placed on a logarithmic scale for all the subjects to address normality. The concentration-time profiles were characterized using nonlinear mixed-effects modeling using Phoenix NLME (Certara Inc. version 8.2). Concentrations below the lower limit of detection (LLOD) were excluded from the analysis. Concentrations below the lower limit of quantitation (LLOQ) were divided by two to obtain an unbiased conservative estimate of the true concentration. One- and two-compartment models with first-order elimination with additive, proportional, and combined error models were considered for the base model. The between-subject variability was normally distributed with a mean equal to 0 and variance equal to ω^2. The allometric scaling exponent for clearance and volume of distribution were fixed at 0.75 and 1, respectively ([Holford, 1996]; [Chung et al., 2021]). The models were run with the FOCE-ELS algorithm and simple run mode. […] Weight was applied a priori to the base model. A sensitivity analysis was performed after the final structural model selection, and the initial estimates were changed to evaluate the robustness of the model.
The clinically relevant categorical covariates that were investigated included the major diagnosis category/infection severity, extracorporeal membrane oxygenation (ECMO) status, and surgery status. Covariate investigation was conducted in stepwise covariate search run mode in Phoenix (Phoenix®, version 8.2, Certara, Princeton, NJ) using stepwise forward inclusion followed by stepwise backward elimination. The models were assessed by a reduction or increase in the objective function value (OFV), equal to −2*log likelihood. During forward selection, any covariate that reduced the OFV by > 3.84 [p < 0.05, χ2 distribution with 1 degree of freedom (df)] was significant.
The conditions of series [2]: ref Chung et al., 2021, Matusik et al., 2022, cited from earlier work. The text has this: In pediatric patients, vancomycin pharmacokinetics can be highly variable due to age-related differences in drug absorption, distribution, metabolism, and elimination. Population pharmacokinetic models provide quantitative and semi-quantitative frameworks for optimizing dosing regimens. They achieve this by identifying sources of variability, by determining factors that influence the pharmacokinetic behavior of the drug, and quantifying the magnitude of unexplained variability ([Stockmann et al., 2013]).

For series [3] the following is noted: within 24 h; ref Shimamoto et al., 2021; Le et al., 2013; cited from earlier work.
The mark [4] stands for this setting: calculated from final model, median weight, ηCl = 0.
Where [5] appears, read: non-parametric bootstrap of final model, 1,000 datasets.
[6] abbreviates: non-parametric bootstrap, 1,000 datasets.

`CN[C@H](CC(C)C)C(=O)N[C@H]1C(=O)N[C@@H](CC(N)=O)C(=O)N[C@H]2C(=O)N[C@H]3C(=O)N[C@H](C(=O)N[C@H](C(=O)O)c4cc(O)cc(O)c4-c4cc3ccc4O)[C@H](O)c3ccc(c(Cl)c3)Oc3cc2cc(c3O[C@@H]2O[C@H](CO)[C@@H](O)[C@H](O)[C@H]2O[C@H]2C[C@](C)(N)[C@H](O)[C@H](C)O2)Oc2ccc(cc2Cl)[C@H]1O` [vancomycin]: the “Clearance value, patients with severe infections” value in series [1] (DIAG = 0 (pneumonia/bacteremia/osteomyelitis/meningitis/deep tissue infection), calculated from final model, median weight (12.6 kg), ηCl = 0) is 1.03 L/h. Also, in series [1] (DIAG = 1 (cellulitis/surgical prevention/neutropenic fever/others), calculated from final model, median weight (12.6 kg), ηCl = 0), the “Clearance value, patients with mild infections” value is listed as 0.63 L/h. In series [1] (ECMO = 0, calculated from final model for an individual of median weight (12.6 kg), ηCl = 0), the “Clearance value, patients without ECMO” value was 1.03 L/h. Also, in series [1] (setting [4]), the “% difference (reduction) in clearance, ECMO versus non-ECMO patients” value is on record as “∼56%” and the “% difference (reduction) in clearance, mild versus severe infections” value is “∼39%”. Further, in series [1] (setting [5]), the “tvCL, bootstrap median” value is 1.01 L/h and the “tvV, bootstrap median” value stood at 11.85 L. In addition, in series [1] (setting [6]), the “dCldDiag, bootstrap median” value is reported as −0.48 and the “dCldECMO, bootstrap median” value is reported as −0.79. In addition, the “tvV, typical value of volume of distribution, final model estimate” value in series [1] (one-compartment model, first-order elimination, proportional error, Phoenix NLME FOCE-ELS, IV infusion, 90 critically ill Asian patients, 263 samples, typical individual 12.6 kg, allometric exponent 1 fixed) is 11.61 L. Further, the “half-life, HDF” value in series [2] (dialysis mode hemodiafiltration) is on record as 2.1 h. Moreover, the “half-life, HD” value in series [2] (dialysis mode hemodialysis) is 3.5 h. The “administered dose excreted unchanged” value in series [3] was “approximately 90%”.
